Measured values reported in patent US6566047B1, “Method for identifying neurite-growth promoting agents” (The Regents of the University of Colorado, priority 1998, dated 2003).
Like-named read-outs stand apart in the source and are kept apart here.

Key:
GCPs plated on laminin = test: GCP release (detachment) assay on laminin; set-up: species or system rat
Experimental: GCP Release Assay. Petri dishes (35 mm diameter) were coated with 10 μg mouse laminin in PBS by incubation at room temperature for 60 min with shaking. Dishes were subsequently rinsed three times with PBS to remove unbound laminin and then blocked with 5% non-fat dry milk (Carnation) in PBS for 30 min. After three PBS rinses to remove blocking agent, the dishes were ready for the addition of GCPs. […] After incubation for five min at 37° C. this buffered GCP preparation was added to the laminincoated petri dishes. Contact with the substratum was facilitated by centrifuging the dishes for 15 min at 5000 g (Beckman JS5.2 rotor) at room temperature, followed by incubation at 37° C. to allow adhesion site formation. After 10 min, unattached GCPs were removed by rinsing the dishes twice with 1× modified Krebs buffer. Plated GCPs were then challenged with repellent factor (TRAP or thrombin) for 20 min at 37° C. The supernatant containing released GCPs was collected and centrifuged for protein determination of the pellet. GCPs that remained attached after repellent treatment were removed with 5% sodium dodecyl sulfate (SDS) for protein assay. Protein was measured according to Lowry et al. (1951) as modified by Peterson (1983). Results of these experiments were expressed as the percentage of released versus total GCP protein in the assay.

phospholipase C = details: thrombin stimulation as for PLA2
Experimental: MAT-Lu cells were plated at a density of 0.5×10^6 cells per flask (T-75) and grown as detailed above to approximately 25% confluency. On the day before the experiments, the serum level in the medium was dropped to 1%. Cells were fed with fresh 1% serum-medium 4 hrs prior to harvest. For harvesting, cells were rinsed with Ca^++,Mg^++-free HBSS, covered with 2 ml cold Ca^++-free modified Krebs buffer (220 mM sucrose, 50 mM NaCl, 5 mM KCl, 22 mM HEPES, 10 mM glucose. 1.2 mM NaH2PO4 and 1.2 mM MgCl2, pH 7.3), and placed on ice. Cells were scraped off, pelleted for 5 min at 200 rpm and re-suspended in a minimal volume of Krebs buffer. Aliquots were used to determine protein concentration (Biorad Assay) and phopholipase activity. […] Lipid extraction followed by thin-layer chromatography (Negre-Aminou et al., J Neurochem 67:2599-2608 (1996)) isolated the reaction product (identified by co-migration with AA standard), which was then scraped off the plates and analyzed in a scintillation spectrometer (Beckman). In some experiments, especially those involving ^14C-AA-phosphatidylinositol as substrate, the diacylglycerol-containing band (identified by co-migration of standard) also was scraped and counted in order to measure phospholipase C (PLC) activity.

growth cone PLA2 = test: PLA2 assay in growth cone particles (GCPs); format: biochemical, rat; details: for net activity (pmol/min/mg protein), GCPs: Table 3a, 100 nM
Experimental: Growth Cone Particle (GCP) Isolation. GCPs were prepared as described by Pfenninger et al. (1983) and modified by Lohse et al., Dev. Brain Res., 96:38-96 (1996). Briefly, 18-day fetal brains were homogenized in approximately 8 volumes of 0.32 M sucrose containing 1 mM MgCl2, 2 mM TES buffer, pH 7.3, and 3 μM aprotinin. A low-speed supernatant (1,660 g×15 min) was loaded onto a discontinuous sucrose density gradient With steps of 0.83 M and 2.66 M sucrose containing MgCl2 and TES. The gradients were spun to equilibrium at 242,000 g for 40 min in a vertical rotor (Vti50, Beckman). The GCP fraction at the 0.32/0.83 M sucrose interface was collected and used for the experiments described below.
All assays were run in triplicate.

12-Lox = test: Eicosanoid (HETE) generation in GCPs; format: biochemical, rat
Experimental: Eicosanoid Assays. Eicosanoid production in GCPs was measured by metabolic labelling from ^14C-AA or ^14C-AA-PC or by mass spectrometric detection. […] To measure Lox activity directly, without PLA2 involvement, ^3H-AA was the substrate of choice. Reactions were stopped by the addition of chloroform/methanol as for the phospholipase assays. Reaction products were extracted as described by Birkle et al., Neuromethods, vol. 7, pp.227-244 (Humana Press, N.J. 1988), spotted on pre-activated si gel 60 TLC plates, and the plates developed in the upper phase of ethyl acetate/isooctane/acetic acid/water (100:60:20:100). AA and HETEs were identified by co-migration with standards. Appropriate bands were counted by liquid scintillation spectrometry.
For mass-spectrometric (MS) identification of HETEs, two different strategies were pursued:
(1) the appropriate bands from non-labelled samples (PC substrate) were scraped from the TLC plate into ether/methanol (9:1) and stored under N2 at −20° C. Authentic 12(S)-HETE, run alongside in the same manner, was used as a standard. Just prior to analysis, samples were passed over an SPE filter to eliminate silica particles, dried under argon, resuspended in 500 μl ethanol, and injected (at 3 μl/min) into a Finnigan LCQ quadrupole ion trap mass spectrometer (Finnigan MAT, San Jose, Calif.) equipped with an electrospray ionization source. All spectra were acquired at a capillary temperature of 80° C., and ion guide voltages were tuned to maximize the abundance of the deprotonated ion species [M-H]^− in negative mode. In order to generate a spectrum, typically 100 single scans were averaged.
(2) For the other strategy (liquid chromatography/tandem MS, LC/MS^2), the reaction substrate consisted of 3.5 μM AA, with the addition of 3.5 μM deuterated AA (AA-D8) plus 1 μCi ^3H-AA to track reaction products by mass and radioactivity, respectively. Reactions were stopped with ice-cold ethanol, the mixtures kept overnight at −20° C. under N2, and the proteins spun out The supernatants were diluted with H2O and loaded onto 1-ml C18 Sep-Pak columns (Varian). After washing with H2O, eicosanoid was eluted with 2 ml methanol. These samples were resolved by reverse-phase HPLC, and the eluted fractions analyzed by tandem MS on-line (MacMillan and Murphy, 1995). Collision-induced decomposition of HETE isomers produced characteristic fragments that were identified at the second MS stage.

cPLA2 = cPLA2 activity in PC-3M-MM2 cells; format: biochemical, human
Experimental: PLA2 stimulation. Using ^14C-AA-PE, -PC or -PI as a substrate, thrombin, SemaIV and netrin activation of the enzyme are measured. For these assays, commercially available thrombin or thrombin-receptor-activating peptide (TRAP) (Sigma, St. Louis, Mo.), recombinant SemaIV provided to us by Dr. H. Drabkin, University of Colorado School of Medicine, recombinant SemaIII provided by Dr. Y. Luo, Exelixis Pharmaceuticals, San Francisco Calif., and recombinant netrin from Dr. M. Tessier-Lavigne, (University of California, San Francisco) are used. Time courses and dose-response curves are generated with the appropriate substrate(s). These assays are carried out according to well-established protocols described in Negre-Aminou et al., 1996, supra, incorporated herein by reference, on cells grown to equal density levels (as determined by protein and DNA content). Some enzyme assays are carried out in the presence of reducing agent, which blocks secreted but not cytosolic PLA2 activity, to exclude potential interference by secreted PLA2. To characterize the stimulated cPLA2 further, cultured cells are homogenized in protease inhibitor-containing buffer, in the presence of 1 mM EDTA or 0.3 mM Ca^2+, and then centrifuged in order to generate crude membrane fractions and cytosolic extracts. […] In separate experiments, enzyme activity is measured in the presence of different concentrations of free calcium to determine whether the enzyme activity is calcium-dependent or not

## thrombin: potent growth cone repellent; commercially available thrombin (Sigma); rat thrombin in Boyden assays
GCPs plated on laminin; 20 min at 37° C., cytochalasin D 1 μM
  effect on GCP detachment from laminin: detached from the substratum in a dose-dependent maaner
GCPs plated on laminin; same thrombin concentrations as cPLA2 assays, in presence of calcium, controls 17%
  growth cones detached from laminin: about 46%
Phospholipase C
  effect on DAG release from PI / phospholipase C (words): reduced DAG release rather than stimulating it
Phospholipase C; listed as Thrombin
  effect on DAG release from PI / phospholipase C (words): did not activate phospholipase C in MAT-Lu cells
Growth cone PLA2; AA release from PI
  concentration at which PLA2 activation saturates: about 250 nM
Growth cone PLA2; substrate PE
  net activity (pmol/min/mg protein), GCPs: 210.2 ± 4.8 pmol/min/mg protein
Growth cone PLA2; substrate PI
  net activity (pmol/min/mg protein), GCPs: 262 ± 47 pmol/min/mg protein
Growth cone PLA2; Table 3b, GCPs, substrate PI, thrombin 100 nM
  net activity (pmol/min/mg protein), no DTT: 221 ± 39.9 pmol/min/mg protein
Growth cone PLA2; Table 3b, GCPs, substrate PI, thrombin 100 nM or control
  net activity (pmol/min/mg protein), 50 nM DTT: 223 ± 53.4 pmol/min/mg protein
Growth cone PLA2; Table 3c, GCPs, substrate PI, BDNF 100, IGF-1 0.75, insulin 1, thrombin 200 nM, control 159 ± 6.2
  net activity (pmol/min/mg protein): 355 ± 28.0 pmol/min/mg protein
Growth cone PLA2; thrombin 100 nM, GCPs
  stimulation of PC-hydrolyzing cPLA2 (14C-AA release from PC): about 7 fold
  stimulation of cPLA2-PE (14C-AA release from PE): ~7 fold
  stimulation of cPLA2-PI (14C-AA release from PI): about 5 fold
Growth cone PLA2; thrombin 100 nM, GCPs, listed as Thrombin
  stimulation of PC-hydrolyzing cPLA2 (14C-AA release from PC): ~7 fold
12-Lox; 3H-AA substrate
  effect on HETE production from AA: does indeed stimulate HETE production from AA
12-Lox; 14C-AA-PC substrate, thrombin 100 nM
  increase of radioactivity co-migrating with 12-HETE above control: approximately 2.5 fold
12-Lox; GCPs first stimulated with thrombin
  increase of MS peak at m/z 381 in TLC band co-migrating with 12(S)-HETE: ~2 fold
12-Lox; growth cones stimulated with thrombin
  increase in generation of compound co-migrating with 12(S)-HETE from 14C-AA-labelled phospholipid, relative to controls: 4-8 fold
cPLA2
  stimulation of AA release from PC: about 4 fold
  stimulation of AA release from PE: about 4 fold
  stimulation of PI hydrolysis: not further stimulated by thrombin
